Data from patent US10059712B2, “N-benzyl tryptanthrin derivative, and preparation method and application thereof” (priority 2013, dated 2018).
pIC50: −log10 of the molar value. Where two headings read alike, the source gives them in different places. One block for each compound: values may come before it.

Assays:
Lewis lung carcinoma [1] = tested on: Lewis lung carcinoma
Lewis lung carcinoma [2] = test: LLC Lewis tumor model, prophylactic administration; conditions: for tumor inhibition rate, tumor volume basis / tumor inhibition rate, tumor weight basis: prophylactic administration; for tumor formation, days after the start of administration: prophylactic administration via gavage, test compound: high dosage group
T lymphocytes = test: T-cell proliferation assay (spleen lymphocytes + LLC cells, WST-1); format: cell-based, mice; conditions: 50 μM IDO inhibitor, 72 hours
Description: Isolation of Spleen Lymphocytes (Performed in Accordance with the Lymphocyte Separation Medium Instructions):
1. Two mice were sacrificed by cervical dislocation and spleens were removed on a sterile table and placed into a 6 cm plate containing an RP1640 culture medium for later use.
2. A 100 μm mesh was placed in a 50 mL centrifuge tube and each spleen was cut into smaller pieces using scissors, milled on top of the sieve and a small amount of RP1640 was added for preservation purposes.
3. A lymphocyte separation medium equivalent to twice the volume of the resulting slurry was then added.
4. Centrifugation was performed at 800 g for 20 minutes, after which three distinct layers were visible, with the middle layer showing a slight yellowish tint.
5. Cells in the middle layer were removed and an RP1640 culture medium was added to perform a reverse wash. Cells were then centrifuged at 250 g for 10 minutes at room temperature, and the cells were collected.
6. The culture medium was aspirated off and cells were resuspended in the RP1640 medium, after which a cell count was performed.
LLC (Lewis Lung Carcinoma) Cell Treatment:
1. A medium (high glucose DMEM, 10% FBS) was aspirated off and washing was performed 1-2 times using PBS;
3. The trypsin was aspirated off and a culture medium was added, after which cells were pipetted off and transferred to a 1.5 mL centrifuge tube;
4. Centrifugation followed by aspiration of the supernatant was performed, and cells were resuspended in 1 mL of the DMEM culture medium;
5. Mitomycin C (final concentration: 25 μg/mL) was added, the mixture was pipetted up and down until homogeneous, and the mixture was placed in a 37° C. bath for 30 minutes;
6. Washing was performed 3 times with RP1640, the cells were counted and the sample was set aside.
1. Treated LLC cells (2×10^4 cells/well; stimulator cells) and spleen lymphocytes (10^5 cells/well; reaction cells) were added to a 96-well plate, after which RP1640 (10% FBS was added to bring the volume to 200 μL;
3. A WST-1 reagent kit was used to measure T-cell proliferation, and absorbance values at a wavelength of 450 nm were measured using a plate reader;
4. […] Experimental Results

IDO [3] = target: T1, IDO (Homo sapiens, UniProt P14902); test: Measurement of IC50 (cells): HEK 293 cells transfected with pcDNA3.1-hIDO plasmid; format: cell-based; design: expressed in transfected cells; host or cells: HEK 293; conditions: as headed in Table 1, column 3; read-out: IC50 (μM) (Cell)
Description: The liposome Lipofectamin 2000 was used to transfect HEK 293 cells with the pcDNA3.1-hIDO plasmid. When measuring the inhibition activity at the cellular level, the HEK293 cell culture medium corresponded to high glucose DMEM, containing 50 U/mL penicillin, 50 U/mL streptomycin and 10% FBS, and culturing was performed at 37° C. under 5% CO2.

IDO [4] = target: T1, IDO; test: Measurement of median effective inhibition concentration IC50 (IDO enzyme); format: biochemical; design: made in house; host or cells: Escherichia coli
Description: (§1) The IDO inhibitory activity with respect to each compound was detected using the methods described in the literature. 50 mM potassium phosphate buffer (pH 6.5), 40 mM vitamin C, 400 μg/ml catalase, 20 μM methylene blue and IDO enzyme were mixed together in a 96-well plate. The substrate L-tryptophan and the sample to be tested were then added to the aforementioned mixture. The reaction was carried out for 60 minutes at 37° C., after which the reaction was terminated by adding 30% (w/v) trichloroacetic acid. The 96-well plate was heated to 65° C. for 15 minutes to complete the conversion from formylkynurenine to kynurenine, and centrifugation was performed with 6000 g for 5 minutes. 100 μl of supernatant was removed from each well and transferred to a new 96-well plate, after which an acetic acid solution of 2% (w/v) p-(dimethylamino)benzaldehyde was added, and the yellow color produced as a result of the resulting reaction with kynurenine was observable at 490 nm in a microplate reader; the experimental results are shown in Table 1.
50 mM potassium phosphate buffer (pH 6.5), 40 mM vitamin C, 400 μg/ml catalase, 20 μM methylene blue, […] of the substrate L-tryptophan and inhibitor were mixed together.

IDO [5] = target: T1, IDO; test: Determining inhibitor type and Ki value measurement (Dixon plot); format: biochemical; design: made in house; host or cells: Escherichia coli
Description: as §1

[6] = 200 mg/kg via gavage, two weeks, post-inoculation
[7] = high dosage group 150 mg/kg via gavage
[8] = low dosage group 75 mg/kg via gavage

T1 sequence (P14902 whole entry): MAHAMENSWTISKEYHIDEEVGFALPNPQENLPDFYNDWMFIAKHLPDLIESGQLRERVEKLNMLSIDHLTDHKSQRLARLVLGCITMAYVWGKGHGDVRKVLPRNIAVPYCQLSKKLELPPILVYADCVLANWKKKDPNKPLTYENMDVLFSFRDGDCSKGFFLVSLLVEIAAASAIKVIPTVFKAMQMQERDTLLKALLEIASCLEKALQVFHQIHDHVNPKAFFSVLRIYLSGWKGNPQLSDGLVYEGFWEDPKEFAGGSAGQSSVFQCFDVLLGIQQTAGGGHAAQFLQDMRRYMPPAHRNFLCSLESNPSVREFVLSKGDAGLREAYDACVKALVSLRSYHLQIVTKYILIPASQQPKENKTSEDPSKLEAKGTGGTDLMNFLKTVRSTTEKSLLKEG

SMILES: CN1CCN(Cc2ccc3nc4n(c(=O)c3c2)-c2ccc(F)cc2C4=O)CC1 [Embodiment Example 4]
tumor inhibition rate, tumor volume basis (Lewis lung carcinoma [1]; [6]): 23.38%
tumor inhibition rate, tumor volume basis (Lewis lung carcinoma [2]; [7]): 62.15%
tumor inhibition rate, tumor weight basis (Lewis lung carcinoma [2]; [7]): 57.8%
tumor inhibition rate, tumor volume basis (Lewis lung carcinoma [2]; [8]): 46.62%
tumor formation, days after the start of administration (Lewis lung carcinoma [2]): > 20 days
T-Cell Proliferation Rate (T lymphocytes): 41.24%

SMILES: O=C1c2cc(F)ccc2-n2c1nc1ccc(CN3CCNCC3)cc1c2=O [Embodiment Example 3, 8-fluoro-2-(piperazin-1-ylmethyl)indolo[2,1-b]quinazoline-6,12-dione]
T-Cell Proliferation Rate (T lymphocytes): 40.64%

SMILES: CC(C)(C)OC(=O)N1CCN(Cc2ccc3nc4n(c(=O)c3c2)-c2ccc(F)cc2C4=O)CC1 [Embodiment Example 2, 4-((8-fluoro-6,12-dioxo-6,12-dihydroxy-indolo[2,1-b]quinolin-2-yl)methyl)piperazine-1-carboxylic acid tert-butyl ester]
T-Cell Proliferation Rate (T lymphocytes): 38.48%

SMILES: CC(=O)O[C@H]1C(=O)[C@@]2(C)[C@H]([C@H](OC(=O)c3ccccc3)[C@]3(O)C[C@H](OC(=O)[C@H](O)[C@@H](NC(=O)c4ccccc4)c4ccccc4)C(C)=C1C3(C)C)[C@]1(OC(C)=O)CO[C@@H]1C[C@@H]2O [paclitaxel]
tumor inhibition rate, tumor volume basis (Lewis lung carcinoma [1]; 100 mg/kg intravenous injection once per week, post-inoculation): 51.45%
toxic side effects observed in mice (Lewis lung carcinoma [1]; mouse, in vivo): losing weight, losing their fur and showing less movement in general

SMILES: CN1CCN(Cc2ccc3nc4n(c(=O)c3c2)-c2ccccc2C4=O)CC1 [Embodiment Example 6, 2-((4-methyl-piperazin-1-yl)methyl)indolo[2,1-b]quinazoline-6,12-dione]
IC50 (IDO [3]): 2.52 µM
T-Cell Proliferation Rate (T lymphocytes): 39.40%
pIC50 (IDO [4]; as headed in Table 1, column 4, read-out: IC50): 6.01
Inhibition Type (IDO [5]; Dixon plot (1/v-[I])): Anticompetitive
Ki (IDO [5]; plot of S/v-[I], read-out: Ki (μM) (in vitro)): 5.97 µM

SMILES: CN(C)Cc1ccc2nc3n(c(=O)c2c1)-c1ccc(F)cc1C3=O [Embodiment Example 1, 2-((dimethylamino)methyl)-8-fluoro-indolo[2,1-b]quinazoline-6,12-dione]
T-Cell Proliferation Rate (T lymphocytes): 4.88%

SMILES: O=C1c2cc(F)ccc2-n2c1nc1ccc(CN3CCOCC3)cc1c2=O [Embodiment Example 5, 8-fluoro-2-((morpholino-1-yl)methyl)indolo[2,1-b]quinazoline-6,12-dione]
T-Cell Proliferation Rate (T lymphocytes): 50.27%

SMILES: Cn1cc(C[C@H](N)C(=O)O)c2ccccc21 [1-MT, 1-methyl-tryptophan, reference compound]
in vivo Lewis lung carcinoma tumor growth compared to the control group (Lewis lung carcinoma [1]; [6]): significant inhibition
tumor inhibition rate, tumor volume basis (Lewis lung carcinoma [1]; [6]): 15.68%
tumor inhibition rate, tumor volume basis (Lewis lung carcinoma [2]; [7]): 32.35%
tumor inhibition rate, tumor weight basis (Lewis lung carcinoma [2]; [7]): 28.2%
tumor inhibition rate, tumor volume basis (Lewis lung carcinoma [2]; [8]): 27.00%
tumor formation, days after the start of administration (Lewis lung carcinoma [2]): 13 days

pIC50 (IDO [4]; method of Embodiment Example 9-11, read-out: IDO inhibitory activity in vitro IC50): 3.00
SMILES: Cc1ccc2nc3n(c(=O)c2c1)-c1ccccc1C3=O [Comparative Example, 2-methyl-indole[2,1-b]quinazoline-6,12-dione, reference compound]
